Data: the METLIN SMRT retention time set (Domingo-Almenara et al. 2019)

Assay: gradient 5% acetonitrile 3 min, to 50% in 2 min, to 85% in 15 min, held 3 min, 100 µL/min
Settings: column: Zorbax Extend-C18 2.1 x 50 mm; eluents: water / acetonitrile, 0.1% formic acid
Method in brief: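 A Zorbax Extend-C18 column (2.1 × 50 mm, 1.8 μm) run at 100 μL/min with water and acetonitrile, both containing 0.1% formic acid, separated mixtures of ~100 pure standards. The HPLC was coupled to a quadrupole time-of-flight mass spectrometer operated in positive and negative ionization mode, with dead and dwell volumes of 40 μL and 900 μL. Each retention time was taken from a computationally picked adduct peak that was then manually inspected.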

| SMILES | RP-LC retention time |
| --- | --- |
| O=C(c1ccc(OCC2CCCN(C(=O)c3cccs3)C2)cc1)N1CCOCC1 (stereo not drawn) | 620 s |
| CCc1nnc2ccc(-c3noc(COc4ccc(Cl)cc4)n3)cn12 | 770 s |
| CCn1ccc2c(cc(C(=O)Nc3ccc(C)cc3C)n2C)c1=O | 753 s |
| CC(C)CCNC(=O)C1CCN(c2cnn(Cc3ccccc3)c(=O)c2)CC1 | 790 s |
| Cc1ccsc1CN1CCn2nnc(CCC(=O)N3CCCC3)c2C1 | 646 s |
| CNC(=O)Nc1ccc(C2(C(=O)Nc3cc(C)cc(C)c3)CCC2)cc1 | 822 s |
| CC(Oc1ccc(Cl)cc1Cl)C(=O)NCCn1ncccc1=O (stereo not drawn) | 722 s |
| Cc1occc1-c1nnc(SC(C)C(=O)N2CCCc3ccccc32)o1 (stereo not drawn) | 981 s |
| O=C(CN1C(=O)CCC1=O)Nc1nc(-c2ccc(Cl)cc2Cl)cs1 | 850 s |
| CCn1cnc(S(=O)(=O)N2CCC(C(=O)N3CCN(c4cc(Cl)ccc4C)CC3)CC2)c1 | 916 s |
| CCN1C(=O)C2CC3(CCN(C(=O)CN4CCCC4=O)CC3)CN2C1=O (stereo not drawn) | 600 s |
| Cc1nnc2c(=O)n(CC(=O)NCc3ccc(F)c(Cl)c3)c3cccnc3n12 | 723 s |
| O=C(NCc1ccc(F)cc1)Nc1nnc(-c2ccco2)o1 | 706 s |
| COC[C@@H]1CN(c2cnccn2)C[C@H]1C(=O)NCCn1cccn1 | 564 s |
| O=C(Cn1nc2c(N3CCCCCC3)nccn2c1=O)Nc1cccc(Cl)c1 | 763 s |
| CCn1cnc(S(=O)(=O)N2CCC(C(=O)Nc3nccs3)CC2)c1 | 636 s |
| COc1ccc2c(c1)C1(CCN(C(=O)C(C)(C)C)C1)C(=O)N2 (stereo not drawn) | 703 s |
| COc1cc(-c2noc(CN3C(=O)COc4cc(C)ccc43)n2)cc(OC)c1OC | 974 s |
| Cc1ccccc1NC(=O)N1CCc2nc(-c3ccc(Cl)cc3)ncc2C1 | 1020 s |
| COc1ccc(-c2cc3c(=O)n(CC(=O)NCC4CCCO4)ncn3n2)cc1 (stereo not drawn) | 720 s |
| COc1cc(CNS(=O)(=O)c2cn(C(C)C)c3ncccc23)cc(OC)c1 | 859 s |
| COc1ncc(C(=O)Nc2cc(C)cc(C)c2)c(C)n1 | 817 s |
| COc1ccc(CCN2C(=O)C(NC(=O)C3CC3)(C(F)(F)F)C3=C2CC(C)(C)CC3=O)cc1OC (stereo not drawn) | 847 s |

| SMILES | RP-LC retention time |
| --- | --- |
| O=C1NC2(CCN(C(=O)c3ccccc3)CC2)N=C1c1ccc(Br)cc1 | 861 s |
| CCOc1ccccc1NC(=O)C1CCN(S(=O)(=O)c2ccc3[nH]c(=O)ccc3c2)CC1 | 789 s |
| Cc1cccc(CN2CC(=O)N(c3ccccc3)[C@@H]3CS(=O)(=O)C[C@@H]32)c1 | 800 s |
| O=C(Nc1ccc(F)c(F)c1)C(=O)c1ccc[nH]1 | 899 s |
| COCCCNc1c(C(=O)OC)c(=O)[nH]c2c(Cl)cccc12 | 692 s |
| CCC(NC(=O)c1cn2ccc(C)cc2n1)c1cccs1 (stereo not drawn) | 685 s |
| COc1cccc(NC(=O)N2CCC3(CC2)NC(=O)c2ccccc2O3)c1 | 745 s |
| O=C(c1csc(N2CCN(c3ccc(Cl)cc3)CC2)n1)N1CCOCC1 | 942 s |
| Cc1cc(C(=O)NCCOc2ccc3nnc(-c4ccccc4)n3n2)c(C)o1 | 698 s |
| COCC(=O)N1CCOc2ccc(N(C)C)cc2C1 | 550 s |
| COc1ccc(-c2noc(-c3nnn4c3COC(c3ccc(F)cc3)C4)n2)cc1 (stereo not drawn) | 1120 s |
| CCCCNC(=O)c1cc(NS(=O)(=O)c2ccc(C(C)(C)C)cc2)cnc1N1CCNCC1 | 706 s |
| Cc1sc2cc(C(=O)N3CCN(c4ccc(F)cc4)CC3)[nH]c2c1CN1CCOCC1 | 690 s |
| O=C(NCc1ccc2c(c1)OCO2)c1nc(-c2ccnc(N3CCCCC3)c2)no1 | 691 s |
| CCC(c1cccs1)N1C(=O)[C@H]2CN(S(=O)(=O)c3ccc(C)cc3C)C[C@H]2C1=O (stereo partly drawn) | 842 s |
| COC1C(=O)N(CC2CC2)C12CCN(C(=O)C1CC1)CC2 (stereo not drawn) | 639 s |
| Cc1nc2cccnc2n1CC1CCCN(S(=O)(=O)c2cc(F)ccc2F)C1 (stereo not drawn) | 703 s |
| Cc1ccc(S(=O)(=O)N2CCN(CCc3cn(C)c4ncccc34)CC2)cc1 | 632 s |
| Cc1ccc(-c2noc(-c3nn(-c4cccc(F)c4)ccc3=O)n2)cc1 | 956 s |
| Ic1ccc(N2CCN(Cc3c[nH]c4ncccc34)CC2)cc1 | 727 s |
| Cc1cccc(-c2nc(C3CCN(C(=O)C(NC(=O)c4ccco4)C(C)C)CC3)no2)c1 (stereo not drawn) | 1010 s |
| Cc1ccc(NC(=O)Nc2c(Cl)cccc2Cl)cn1 | 905 s |
| CC(C)n1cnc2cc(CNC(=O)c3cnccn3)ccc21 | 572 s |

| SMILES | RP-LC retention time |
| --- | --- |
| COCCN1C(=O)c2ccccc2C(C(=O)NCCN2CCOCC2)C1c1ccc(F)cc1 (stereo not drawn) | 628 s |
| Cc1ccc(NC(=O)C(=O)c2ccc[nH]2)c(Br)c1 | 1060 s |
| CCc1nc2cc(CNC(=O)Cc3ccccc3C)ccc2n1C | 618 s |
| O=C(C1CCCCC1)N1CCN(c2nc(CN3CCOCC3)cs2)CC1 | 617 s |
| COc1ccccc1OCc1nn2c(CSc3ccccc3)nnc2s1 | 882 s |
| CCOC(=O)c1ccc(NC(=O)N2CCN(c3nc4ccccc4n3C)CC2)cc1 | 658 s |
| O=C(NCc1ccsc1)C(=O)Nc1cccnc1 | 566 s |
| O=C(CN1CCN(c2ccc(F)c(F)c2)C1=O)NC1CCS(=O)(=O)C1 (stereo not drawn) | 636 s |
| COc1ccc(-c2c(C)noc2NC(C)=O)cc1S(=O)(=O)Nc1ccc(S(N)(=O)=O)cc1 | 636 s |
| CCOc1ccccc1NC(=O)Cn1c(C)nc2c(sc3nc(-c4ccccc4)ccc32)c1=O | 1160 s |
| COc1ccc(-n2cc(C(=O)Oc3cccnc3)c3ccccc3c2=O)cc1 | 911 s |
| CC(C)CC(=O)N1CCC(COc2ccc(C(=O)NC3CC3)cc2)CC1 | 758 s |
| Cc1cccc(-c2noc(Cn3c(=O)n(C(C)C)c(=O)c4ccccc43)n2)c1 | 1170 s |
| O=C1NCCCn2cc(S(=O)(=O)N3CCN(c4ccc(Cl)cc4)CC3)cc21 | 804 s |
| Cc1cc(S(=O)(=O)N2CCN(C3CCN(Cc4ccccn4)C3=O)CC2)ccc1Cl (stereo not drawn) | 622 s |
| COc1cc(/C=C2/C(=O)N(c3ccccc3)N=C2C)ccc1OCC(=O)Nc1ccccc1 | 1080 s |
| CCn1nnc(NCc2ccc(-c3cc(Cl)cc(Cl)c3)o2)n1 | 1140 s |
| COc1ccc(NS(=O)(=O)c2c(C)nn(-c3ccc(-c4ccccc4)nn3)c2C)cc1OC | 895 s |
| O=C(NCCCN1CCc2ccccc2C1)C1CCCN(S(=O)(=O)N2CCCCCC2)C1 (stereo not drawn) | 682 s |
| COc1ccc(S(=O)(=O)N2CCCC(C(=O)Nc3ccccc3Br)C2)cc1C (stereo not drawn) | 1040 s |
| COc1ccc2nc(C(=O)NC(C)c3ccccc3)cn2n1 (stereo not drawn) | 803 s |
| O=C(Cn1c(CO)nc2ccccc21)N1CCCC1 | 565 s |
